Measured values published in ChEMBL document CHEMBL1155490, “Aaptamine, an alkaloid from the sponge Aaptos suberitoides, functions as a proteasome inhibitor” (Bioorg Med Chem Lett, 2010).
Values after ≈ are worked out from the molar mass of the structure shown.

Columns and labels:
[1] = Inhibition of caspase-like activity of 20S proteasome in human erythrocyte by spectrofluorimetry
[2] = Inhibition of caspase like activity of partially purified rat liver proteasome by spectrofluorimetry; format: subcellular
[3] = Inhibition of chymotrypsin like activity of partially purified rat liver proteasome by spectrofluorimetry; format: subcellular
[4] = Inhibition of chymotrypsin-like activity of purified 20S proteasome from human erythrocyte
HeLa = test: Cytotoxicity against human HeLa cells after 3 days by MTT assay; format: functional, cell-based; details: 72 h
[5] = Inhibition of trypsin like activity of partially purified rat liver proteasome by spectrofluorimetry; format: subcellular

IC50 [1]	IC50 [2]	IC50 [3]	IC50 [4]	IC50 [5]	Structure (SMILES)	IC50 (HeLa)
4.6 mg/L (≈ 20.2 µM)	2.7 mg/L (≈ 11.8 µM)	1.6 mg/L (≈ 7.01 µM)	4.3 mg/L (≈ 18.8 µM)	18 mg/L (≈ 78.9 µM)	COc1cc2ccnc3c2c(c1OC)NC=C3 [AAPTAMINE]	15 mg/L (≈ 65.7 µM)
1.7 mg/L (≈ 7.45 µM)	2.4 mg/L (≈ 10.5 µM)	2.1 mg/L (≈ 9.2 µM)	1.7 mg/L (≈ 7.45 µM)	10 mg/L (≈ 43.8 µM)	COc1cc2ccnc3c2c(c1O)N(C)C=C3 [ISOAAPTAMINE]	3.1 mg/L (≈ 13.6 µM)
